# Test results as given in patent US6420367B1, “Pyrimidine derivatives exhibiting antitumor activity” (Shionogo & Co., Ltd., priority 1998, dated 2002).
# What was measured:
# [1] = test system: DT-R cells (pRRE3-luc-transfected v-ki-ras-transformed NIH3T3 cells); signal derived from Ras oncogene products; assay: Inhibitory effect against cellular signaling derived from Ras oncogene products: luciferase reporter, dissociation of DT-R from DT-C activity (MAC); assay type: cell-based, mouse; conditions: minimal tested concentration at which luciferase activities of DT-C cells and DT-R cells dissociated
# Text: Test Example 1 Inhibitory Effect Against Cellular Signaling Derived From Ras Oncogene Products
# 1) Establishment of Cell Lines Used in Assay
# Based on the reporter plasmid (pGV-P (Toyo Ink, Japan)), in which luciferase gene was ligated to SV40-derived minimal promoter, we constructed a plasmid designated pRRE3-luc by inserting 3 copies of chemically synthesized oligonucleotides (Sequence: CAGGATATGACTCT, derived from mouse NVL-3 (M. A. Reddy et al.(1992)Mol. Endocrinol., 6, 1051)) into upstream of the promoter. v-ki-ras-transformed NIH3T3 cells (DT cells, provided by Dr. Makoto Noda (Kyoto Univ., School of medicine)) were transfected with this plasmid by liposome-mediated transfection and transfected cell lines stably incorporated and maintained each plasmid were obtained. We named pGV-P and pRRE3-transfected cell line as DT-C and DT-R, respectively and used in the assay described below.
# 2) Preparation of Samples
# i) All the cell lines were cultured in Dulbecco's Modified Essential Medium (DMEM: 10% Fetal Calf Serum(FCS: Hyclone, USA)) including […] kanamycin (Meiji Seika, Japan) in humidified incubator under condition of 5% CO2 at 37° C.
# ii) DT-C and DT-R cells were seeded at 2500 cells/well into flat-bottom 96 well multiplate (Sumitomo bakelite) and incubated for 24 hours.
# iii) Test compounds were prepared as 1 mg/ml DMSO solution.
# iv) The solution of test compounds were added to the culture. Tested compounds are used at the concentration from […] to 0.51 ng/ml with by 3-fold dilution.
# v) After 24 hours, the culture supernatant was completely aspirated and […] of cell-lysing solution (PGC-50 (Toyo Ink, Japan)) was added before cells were dried up. In order to the cells were lysed completely, multiwell plates were left at room temperature for 10 to 30 min. The plates were wrapped up and stored at −20° C. till the day of measurement.
# 3) Measurement of Samples
# i) Melt the samples by putting 96 well multiplate at 37° C. and add 90 μl/well 25 mM Tris (pH 7.5).
# ii) Transfer 50 μl of the sample (110 μl) to the 96 well microplate for measurement (Microlite 1 (Dynatech)).
# iii) Measure the samples by the luminometer, LUMINOUS CT9000D (Dia-Yatron, Japan). We used Pickagene luminescence kit PGL2000 or LT2.0 (Toyo Ink, Japan) as substrates for luminescence measurement (50 μl/well).
# 4) Judgment of the Results
# i) The luciferase activity of DT-C cells and DT-R cells were plotted in the graph where the relative activity and the compound concentration were expressed as Y-axis and X-axis, respectively. We judged by the degree of dissociation between the activities of DT-C cells and DT-R cells as an index.
# ii) Concretely, efficacy of the compound was expressed by two values described below.
# a) Among the points of concentration tested, the minimal concentration (Minimal Active Concentration: MAC), at which the activities of DT-C cells and DT-R cells dissociated, was shown as an index of efficacy of the compound.
# [2] = test system: human squamous lung cancer Ma44; assay: In vitro cell growth inhibition test, MTT assay; assay type: cell-based; conditions: MTT assay 4 days after compound addition
# Text: (§1) Test Example 2 In Vitro Cell Growth Inhibition Test Cells and MTT Assay
# (§2) Human squamous lung cancer […], human squamous lung cancer Ma44, human lung adenocarcinoma A549, human colon cancer HT29 and human pancreas cancer PANC-1 were used.
# [3] = test system: human lung adenocarcinoma A549; assay: In vitro cell growth inhibition test, MTT assay; assay type: cell-based; conditions: MTT assay 4 days after compound addition
# Text: as §1, §2
# [4] = test system: human squamous lung cancer RERF-RC-AI; assay: In vitro cell growth inhibition test, MTT assay; assay type: cell-based; conditions: MTT assay 4 days after compound addition
# Text: as §1, §2
# human colon cancer HT29 = assay: In vitro cell growth inhibition test, MTT assay; assay type: cell-based; conditions: MTT assay 4 days after compound addition
# Text: as §1, §2
# [5] = test system: human pancreas cancer PANC-1; assay: In vitro cell growth inhibition test, MTT assay; assay type: cell-based; conditions: MTT assay 4 days after compound addition
# Text: as §1, §2
SMILES,MAC (Minimal Active Concentration) [1] [µg/mL],"IC50, Ma44 [2] [µg/mL]","IC50, A549 [3] [µg/mL]","IC50, RERF-LC-AI [4] [µg/mL]","IC50, HT29 (human colon cancer HT29) [µg/mL]","IC50, PANC-1 [5] [µg/mL]"
CCNC(=Nc1nc(C)ncc1CSc1nnc(-c2ccccc2N)o1)NC [Compound A-1],0.0412,0.039,0.022,0.018,0.012,0.016
CCNC(=Nc1nc(C)ncc1CSc1nnc(-c2ccc(N)cc2Cl)o1)NCC [Compound A-64],0.370,0.086,0.034,0.013,0.015,0.03
C#CCNC(=Nc1nc(C)ncc1CSc1nnc(-c2ccc([N+](=O)[O-])cc2)o1)NCC [Compound A-183],0.00457,0.0021,0.0039,0.0013,0.002,0.0026
CCNC(=Nc1ncncc1CSc1nnc(-c2ccc([N+](=O)[O-])cc2)o1)NC [Compound A-177],0.0412,0.0043,0.0082,0.002,0.0037,0.0038
CCNC(=Nc1nc(C)ncc1CSc1nnc(-c2ccc([N+](=O)[O-])cc2)o1)NC(C)C [Compound A-134],0.0137,0.026,0.049,0.016,0.013,0.025
CCCCNC(=Nc1nc(C)ncc1CSc1nnc(-c2ccc(N)cc2)o1)NCC [Compound A-180],0.00457,0.016,0.014,0.008,0.012,0.0081
CCNC(=Nc1ncncc1CSc1nnc(-c2ccc(F)cc2N)o1)NCC [Compound A-65],<0.000508,0.09,0.0028,0.0014,0.0014,0.0021
CCCNC(=Nc1nc(CC)ncc1CSc1nnc(-c2ccc(N)cc2)o1)NC [Compound A-151],0.37,0.16,0.07,0.013,0.02,0.024
CCNC(=Nc1ncncc1CSc1nnc(-c2ccc([N+](=O)[O-])cc2)o1)NCC [Compound A-172],0.0137,0.0038,0.0075,0.0015,0.0033,0.0031
CCCNC(=Nc1nc(C)ncc1CSc1nnc(-c2ccc(N)cc2)o1)NC [Compound A-148],0.123,0.086,0.49,0.011,0.016,0.015
CCNC(=Nc1nc(C)ncc1CSc1nnc(-c2ccc(C)cc2)o1)NCC [Compound A-74],0.123,0.012,0.034,0.008,0.01,0.017
CNC(=Nc1nc(C)ncc1CSc1nnc(-c2ccc(N)cc2)o1)NC(C)C [Compound A-171],0.0137,0.013,0.012,0.004,0.0064,0.006
